Experiments:
Type in all cases: in vivo
Musca domestica = assay: Pest control test of Musca domestica adults, sucrose pledget; settings: 50 ppm in 40% sucrose liquid; four days after release
Procedure: Test Example 21 Pest Control Test of Musca domestica
A drug solution of the compound of the present invention, which had been adjusted to be 50 ppm with a 40% sucrose liquid, was adsorbed on a pledget, and the pledget was put into a vial. Two adults reared indoors were released thereto. Thereafter, the adults were left to stand indoors at room temperature of 25° C. […] When two adults were all agonized in death, it was judged to be effective.

Aphis gossypii = assay: Pest control test of Aphis gossypii, cucumber leaf disk foliar spray; settings: Aphis gossypii, 72 h, first instar larvae, three days after release; for mortality at 100 ppm: foliar treatment at 100 ppm; for mortality at 100 ppm / mortality at 20 ppm: read-out: mortality of larvae; for mortality at 20 ppm: foliar treatment at 20 ppm
Procedure: Test Example 3 Pest Control Test of Aphis gossypii
(§1) A leaf disk having a diameter of 2.0 cm was cut out from a cucumber in pot culture, and a drug solution of the compound of the present invention at a predetermined concentration, which had been prepared so as to be a 50% acetone water (0.05% Tween20 available), was sprayed to the leaf disk. After an air drying process, first instar larvae were released thereto. Thereafter, the larvae were left to stand in a thermostatic chamber (16 hours of light period-8 hours of dark period) at 25° C. […] Test in duplicate.
(§2) Mortality of larvae(%)={number of dead larvae/(number of survived larvae+number of dead larvae)}×100

Plutella xylostella = Plutella xylostella control test, cabbage leaf disk foliar spray; settings: Plutella xylostella, 72 h; foliar treatment at 100 ppm; second instar larvae; three days after release; read-out: mortality of larvae
Procedure: Test Example 1 Plutella xylostella Control Test
as §1, with “5.0” for “2.0”, “cabbage” for “cucumber”, “second” for “first”
mortality larvae(%)={number of dead larvae/(number of survived larvae+number of dead larvae)}×100

[1] = tested on: imidacloprid susceptible populations of Nilaparvata lugens; assay: Soil irrigation test, imidacloprid susceptible populations of Nilaparvata lugens
Procedure: (§3) A rice seedling in pot culture was subjected to soil irrigation treatment with a drug solution of the compound of the present invention at a predetermined concentration, which had been prepared so as to be a 10% acetone water. […] Thereafter, the larvae were left to stand in a thermostatic chamber (16 hours of light period-8 hours of dark period) at 25° C. […] The test was performed in duplicate.
as §2
Further, for comparison, the test against some population of Nilaparvata lugens which is highly susceptible to imidacloprid was performed by the same method as described above, and the results thereof are shown in Table 43.
(§4) Further, for the origin of test pests, bugs collected outdoors within the Kumamoto prefecture in 2007 as the drug resistant Nilaparvata lugens, and bugs collected within the Kagoshima prefecture and then successively reared indoors for a long time as the imidacloprid susceptible populations of Nilaparvata lugens were used.

[2] = tested on: Nilaparvata lugens exhibiting drug resistance to imidacloprid; settings: soil irrigation
Procedure: Test Example 18 Pest Control Test of Drug-Resistant Nilaparvata lugens
as §3, §2, §4

[3] = tested on: Trigonotylus caelestialium; assay: Pest control test of Trigonotylus caelestialium, wheat seedling dipping; settings: Trigonotylus caelestialium, 72 h; dipping treatment of the drug solution at 10 ppm; three days after treatment; read-out: mortality of larvae
Excerpt: Test Example 8 Pest Control Test of Trigonotylus caelestialium
Wheat seedling leaves and stems four days after the dissemination of seedlings were dipped for 30 seconds in a drug solution of the compound of the present invention at a predetermined concentration, which had been prepared so as to be a 50% acetone water (0.05% Tween20 available). After an air drying process, the wheat seedling leaves and stems were placed into a glass tube, and two second instar larvae of Trigonotylus caelestialium were released to the same glass tube. After the larvae were released, the tube was lidded to leave the larvae to stand in a thermostatic chamber at 25° C. In order to supply water to the wheat during the test, water was given to the wheat from the bottom of the glass tube.
as §2

[4] = tested on: Frankliniella occidentalis; assay: Pest control test of Frankliniella occidentalis, kidney bean leaf disk foliar spray; settings: Frankliniella occidentalis, 72 h; foliar treatment at 100 ppm; first instar larvae; three days after release; read-out: mortality of larvae
Excerpt: Test Example 7 Pest Control Test of Frankliniella occidentalis
as §1, with “2.8” for “2.0”, “kidney bean” for “cucumber”
as §2

FC(F)(F)C(=S)N=c1ccccn1Cc1cnc(Cl)s1 [Compound 2-20]
activity against adults (effective when two adults were all agonized in death) (Musca domestica): all the adults are agonized in death

CCCN=C(N=c1ccccn1Cc1ccc(Cl)nc1)C(F)(F)F [Compound 1-44]
activity against adults (effective when two adults were all agonized in death) (Musca domestica): all the adults are agonized in death

O=C(/N=c1\ccccn1Cc1ccc(Cl)nc1)OCC(F)(F)F [Compound 1-17, 2,2,2-trifluoroethyl-[1-((6-chloropyridin-3-yl)methyl)pyridin-(2H)-ylidene]carbamate]
mortality at 100 ppm (Aphis gossypii): ≥ 80% | mortality at 500 ppm (Aphis gossypii; foliar treatment at 500 ppm): ≥ 80%

CCN=C(N=c1ccccn1Cc1ccc(Cl)nc1)C(F)(F)F [Compound 1-43]
activity against adults (effective when two adults were all agonized in death) (Musca domestica): all the adults are agonized in death

CCCNC(=O)O/N=C(/N=c1\ccccn1Cc1ccc(Cl)nc1)C(F)(F)F [Compound 1-534, N-[1-((6-chloropyridin-3-yl)methyl)pyridin-2(1H)-ylidene]-2,2,2-trifluoro-N′-((propylcarbamoyl)oxy)acetimidamide]
mortality at 100 ppm (Plutella xylostella): ≥ 80%

FC(F)(F)C(=NC1CC1)N=c1ccccn1Cc1ccc(Cl)nc1 [Compound 1-50]
activity against adults (effective when two adults were all agonized in death) (Musca domestica): all the adults are agonized in death

FC(F)(F)C(F)(F)C(=S)N=c1ccccn1Cc1ccc(Cl)nc1 [Compound 1-23]
Insecticidal effects against Nilaparvata lugens (mortality of larvae %), Susceptible populations three days after the treatment ([1]; Rate 0.05 mg/pot): 85% | Insecticidal effects against Nilaparvata lugens (mortality of larvae %), Drug resistant populations three days after the treatment ([2]; Rate 0.05 mg/pot, drug resistant populations): 70% | insecticidal effects against drug resistant Nilaparvata lugens ([2]; imidacloprid-resistant): high insecticidal effects | mortality of larvae against drug resistant populations compared with susceptible populations of Nilaparvata lugens ([2]; imidacloprid-resistant vs susceptible): equivalent mortality of larvae | activity against adults (effective when two adults were all agonized in death) (Musca domestica): all the adults are agonized in death

O=C(/N=c1\ccccn1Cc1ccc(F)nc1)C(F)F [Compound 3-3, 2,2-difluoro-N-[1-((6-fluoropyridin-3-yl)methyl)pyridin-2(1H)-ylidene]acetamide]
mortality at 100 ppm (Plutella xylostella): ≥ 80% | mortality at 10 ppm [3]: ≥ 80% | mortality at 20 ppm (Aphis gossypii): ≥ 80% | mortality at 100 ppm (Aphis gossypii): ≥ 80% | activity against adults (effective when two adults were all agonized in death) (Musca domestica): all the adults are agonized in death | mortality at 100 ppm [4]: ≥ 80%

O=[N+]([O-])NC1=NCCN1Cc1ccc(Cl)nc1 [Imidacloprid]
Insecticidal effects against Nilaparvata lugens (mortality of larvae %), Susceptible populations three days after the treatment ([1]; Rate 0.01 mg/pot): 73% | Insecticidal effects against Nilaparvata lugens (mortality of larvae %), Susceptible populations three days after the treatment ([1]; Rate 0.05 mg/pot): 90%

O=C(N=c1ccccn1Cc1ccc(Br)nc1)C(F)(F)Cl [Compound 4-4]
activity against adults (effective when two adults were all agonized in death) (Musca domestica): all the adults are agonized in death

FC(F)(F)C(=NCc1ccccc1)N=c1ccccn1Cc1ccc(Cl)nc1 [Compound 1-72]
activity against adults (effective when two adults were all agonized in death) (Musca domestica): all the adults are agonized in death

O=C(N=c1ccccn1Cc1cnc(Cl)nc1)C(F)(F)C(F)(F)F [Compound 6-5]
activity against adults (effective when two adults were all agonized in death) (Musca domestica): all the adults are agonized in death

O=C(N=c1ccccn1Cc1ccc(Br)nc1)C(F)F [Compound 4-3]
activity against adults (effective when two adults were all agonized in death) (Musca domestica): all the adults are agonized in death

FC(F)(F)C(=NCc1ccccn1)N=c1ccccn1Cc1ccc(Cl)nc1 [Compound 1-118]
activity against adults (effective when two adults were all agonized in death) (Musca domestica): all the adults are agonized in death

C=CCON=C(/N=c1\ccccn1Cc1ccc(Cl)nc1)C(F)(F)F [Compound 1-507, N′-(aryloxy)-N-[1-((6-chloropyridin-3-yl)methyl)pyridin-2(1H)-ylidene]-2,2,2-trifluoroacetimidamide]
mortality at 100 ppm (Plutella xylostella): ≥ 80% | mortality at 20 ppm (Aphis gossypii): ≥ 80% | mortality at 100 ppm (Aphis gossypii): ≥ 80%

O=C(N=c1cccnn1Cc1ccc(Cl)nc1)C(F)(F)F [Compound 223-2]
activity against adults (effective when two adults were all agonized in death) (Musca domestica): all the adults are agonized in death

O=C(N=c1ccccn1Cc1cnc(Cl)nc1)C(F)F [Compound 6-3]
activity against adults (effective when two adults were all agonized in death) (Musca domestica): all the adults are agonized in death

CSCCN=C(N=c1ccccn1Cc1ccc(Cl)nc1)C(F)(F)F [Compound 1-150]
activity against adults (effective when two adults were all agonized in death) (Musca domestica): all the adults are agonized in death

FC(F)(F)C(=NCc1cccnc1)N=c1ccccn1Cc1ccc(Cl)nc1 [Compound 1-119]
activity against adults (effective when two adults were all agonized in death) (Musca domestica): all the adults are agonized in death

O=C(N=c1ccccn1Cc1ccc(F)nc1)C(F)(F)C(F)(F)F [Compound 3-5]
activity against adults (effective when two adults were all agonized in death) (Musca domestica): all the adults are agonized in death

C#CCN=C(N=c1ccccn1Cc1ccc(Cl)nc1)C(F)(F)F [Compound 1-56]
activity against adults (effective when two adults were all agonized in death) (Musca domestica): all the adults are agonized in death

O=C(N=c1ccccn1Cc1cnc(Cl)nc1)C(F)(F)Cl [Compound 6-4]
activity against adults (effective when two adults were all agonized in death) (Musca domestica): all the adults are agonized in death

O=C(N=c1ccccn1Cc1cnc(Cl)c(F)c1)C(F)(F)C(F)(F)F [Compound 5-5]
activity against adults (effective when two adults were all agonized in death) (Musca domestica): all the adults are agonized in death

Cc1ccc(S(=O)(=O)ON=C(N=c2ccccn2Cc2ccc(Cl)nc2)C(F)(F)F)cc1 [Compound 1-531]
activity against adults (effective when two adults were all agonized in death) (Musca domestica): all the adults are agonized in death

O=C(N=c1ccccn1Cc1cnc(Cl)c(F)c1)C(F)(F)Cl [Compound 5-4]
activity against adults (effective when two adults were all agonized in death) (Musca domestica): all the adults are agonized in death

CON=C(N=c1ccccn1Cc1ccc(Cl)nc1)C(F)(F)F [Compound 1-500]
activity against adults (effective when two adults were all agonized in death) (Musca domestica): all the adults are agonized in death

O=C(/N=c1\ncccn1Cc1ccc(Cl)nc1)C(F)(F)F [Compound 190-2, N-[1-((6-chloropyridin-3-yl)methyl)pyrimidin-2(1H)-ylidene]-2,2,2-trifluoroacetamide]
mortality at 20 ppm (Aphis gossypii): ≥ 80% | mortality at 100 ppm (Aphis gossypii): ≥ 80%

C#CCC(=O)ON=C(N=c1ccccn1Cc1ccc(Cl)nc1)C(F)(F)F [Compound 1-518]
activity against adults (effective when two adults were all agonized in death) (Musca domestica): all the adults are agonized in death

O=C(N=c1ccccn1Cc1ccc(Br)nc1)C(F)(F)C(F)(F)F [Compound 4-5]
activity against adults (effective when two adults were all agonized in death) (Musca domestica): all the adults are agonized in death

O=C(N=c1ccccn1Cc1ccc(F)nc1)C(F)(F)Cl [Compound 3-4]
activity against adults (effective when two adults were all agonized in death) (Musca domestica): all the adults are agonized in death

FC(F)(F)C(=NCCOc1ccccc1)N=c1ccccn1Cc1ccc(Cl)nc1 [Compound 1-114]
activity against adults (effective when two adults were all agonized in death) (Musca domestica): all the adults are agonized in death

Source: patent publication US20150005347A1, “NITROGEN-CONTAINING HETEROCYCLIC DERIVATIVE HAVING 2-IMINO GROUP AND PEST CONTROL AGENT INCLUDING THE SAME” (MEIJI SEIKA PHARMA CO., LTD., priority 2012, published 2015)
